# Laboratory results reported in patent US20100080786A1, “Phenyl or Pyridinyl Substituted Indazoles Derivatives” (priority 2008, published 2010).
# Target: T1, Human Glucocorticoid Receptor (GR) (Homo sapiens, UniProt P04150)
# T1 construct: The full length GR was diluted to a final concentration of 3.3% (0.495 mg/ml) in assay buffer
# T1 sequence (P04150 1-777): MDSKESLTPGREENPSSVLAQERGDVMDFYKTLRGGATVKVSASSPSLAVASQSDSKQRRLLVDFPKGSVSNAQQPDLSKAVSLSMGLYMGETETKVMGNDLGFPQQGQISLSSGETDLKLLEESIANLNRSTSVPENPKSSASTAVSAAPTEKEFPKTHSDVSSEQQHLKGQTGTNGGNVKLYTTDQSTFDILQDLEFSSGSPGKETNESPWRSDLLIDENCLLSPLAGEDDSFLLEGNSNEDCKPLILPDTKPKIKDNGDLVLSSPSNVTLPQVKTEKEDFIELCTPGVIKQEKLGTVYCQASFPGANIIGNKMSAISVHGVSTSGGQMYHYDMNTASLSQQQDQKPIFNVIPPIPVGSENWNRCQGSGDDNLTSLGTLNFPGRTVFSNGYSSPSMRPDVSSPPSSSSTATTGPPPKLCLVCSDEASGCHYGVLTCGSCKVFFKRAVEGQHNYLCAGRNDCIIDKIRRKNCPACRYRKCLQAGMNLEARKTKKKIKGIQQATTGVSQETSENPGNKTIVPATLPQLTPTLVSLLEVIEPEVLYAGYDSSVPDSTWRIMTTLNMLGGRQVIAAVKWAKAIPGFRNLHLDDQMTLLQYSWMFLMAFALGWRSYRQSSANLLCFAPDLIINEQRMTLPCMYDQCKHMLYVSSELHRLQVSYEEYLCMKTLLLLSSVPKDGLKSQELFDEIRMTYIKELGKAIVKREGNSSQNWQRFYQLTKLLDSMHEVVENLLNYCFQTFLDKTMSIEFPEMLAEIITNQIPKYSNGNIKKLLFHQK
# Assay: Human Glucocorticoid Receptor (GR) radioligand binding assay (3H-dexamethasone competition)
# Conditions: full length GR; 7 nM 3H-dexamethasone; 2 h at room temperature
# Description: Human Glucocorticoid Receptor (GR) Assay
# The radioligand GR binding assay is based on a competition assay using ^3H-labeled Dexamethasone. Dexamethasone is known to bind in the ligand binding domain of GR and compete for binding with endogenous ligands like e.g. cortisol (Necela, 2003). In the GR radioligand binding assay, test compounds were serially diluted in semi-log steps (10 concentrations) with a final concentration of 10 μM. Test compounds (1 μL) and controls (1 μL) in 100% DMSO were added to 96 Greiner V-bottom polypropylene plates. 0% control was 6.7% DMSO (final concentration in assay) and 100% control was 6.7 μM Dexamethasone.
# The full length GR was diluted to a final concentration of 3.3% (0.495 mg/ml) in assay buffer (20 mM Tris-HCl, 1 mM EDTA, 10% (w/v) Glycerol, 20 mM Sodium molybdate, pH 7.4). 45 μL of GR was added to each well and the plates were incubated for 15 min at room temperature.
# ^3H-dexamethasone solution was diluted to a concentration of 70 nM in assay buffer (7 nM final assay concentration) and 5 μL was added to each well. The samples were mixed for 5 min using a plate shaker at 700 rpm, before incubation for 2 h at room temperature.
# 50 μL ice-cold charcoal solution (pH 7.4:2% Charcoal, 0.2% Dextran T70 in 20 mM Tris-HCl, 1 mM EDTA and 20 mM Sodium molybdate) was added to each well and the samples were mixed on plate shaker for 5 minutes.
# The plate was then centrifuged for 1.5 min at 1500 rpm, the samples (80 μL) were is transferred from each well to a filter plate (Millipore, 0.45 μm, MHVBN45) on a vacuum manifold and then collected into new plates (Greiner, 96 well white/transparent, 655095). The filter plate was washed once with 20 μl of water and then 100 μL of scintillation liquid was added to each well and mixed by incubation on plate shaker for 5 min. Radioactivity was measured in a 1450 Microbeta Trilux Reader (Wallac) counting cpm for 2 minutes per well. The data obtained from each replicate experiment were analysed using the software ActivityBase, version 5.4.3 (ID Business Solutions Ltd) and IC50 values were calculated. Ref: Necela, B M, Cidlowski, J A, Trends Pharmacol Sci, 24: 58, 2003
row,SMILES,IC50 [nM]
1,"C[C@H](NC(=O)C(C)(F)F)[C@H](Oc1ccc2c(cnn2-c2cccc(C(=O)N3CCC[C@@H]3CO)c2)c1)c1ccccc1 [Example 8, 2,2-Difluoro-N-[(1S,2R)-2-{[1-(3-{[(2R)-2-(hydroxymethyl)pyrrolidin-1-yl]carbonyl}phenyl)-1H-indazol-5-yl]oxy}-1-methyl-2-phenylethyl]propanamide]",6.88
2,"C[C@H](NC(=O)C(N)=O)[C@H](Oc1ccc2c(cnn2-c2cccc(C(=O)N3CCC[C@@H]3C(N)=O)c2)c1)c1ccccc1 [Example 2, N-[(1S,2R)-2-{[1-(3-{[(2R)-2-carbamoylpyrrolidin-1-yl]carbonyl}phenyl)-1H-indazol-5-yl]oxy}-1-methyl-2-phenylethyl]ethanediamide]",19.9
3,"COc1ccc([C@@H](Oc2ccc3c(cnn3-c3cccc(C(=O)NC4CCOC4)c3)c2)[C@H](C)NC(=O)C(C)(F)F)cn1 (stereo partly drawn) [Example 25, 3-(5-{[(1R,2S)-2-[(2,2-difluoropropanoyl)amino]-1-(6-methoxypyridin-3-yl)propyl]oxy}-1H-indazol-1-yl)-N-(tetrahydrofuran-3-yl)benzamide]",2.99
